In BindingDB's records for patent US20250243186 (Hansoh Bio, 2025):

Biological target: T1, Complement factor B [470-764] (UniProt P00751)
T1 construct: 470-764
Experiment: Factor B Binding Assay by TR-FRET
Method: Table 1: Factor B binding affinity of each compound tested was determined using a time-resolved fluorescence resonance energy transfer (TR-FRET) technology. 10 nM recombinant his-tagged Factor B catalytic domain, varying concentrations of inhibitors, 4 nM LANCE Eu-W1024 Anti-6×His Antibody and 100 nM TR-FRET_tool2 tracer was incubated in 1× Kinase Buffer A for 1 h. Measurement was performed in a reaction volume of 15 μL by adding 5 μL of the test compound, 5 μL of Factor B/antibody mixture and 5 μL of tracer into white opaque 384-well assay plates. The TR-FRET signal was read on a plate reader with an excitation wavelength of 340 nm and detection wavelengths of 615 and 665 nm.

T1 sequence (P00751 470-764): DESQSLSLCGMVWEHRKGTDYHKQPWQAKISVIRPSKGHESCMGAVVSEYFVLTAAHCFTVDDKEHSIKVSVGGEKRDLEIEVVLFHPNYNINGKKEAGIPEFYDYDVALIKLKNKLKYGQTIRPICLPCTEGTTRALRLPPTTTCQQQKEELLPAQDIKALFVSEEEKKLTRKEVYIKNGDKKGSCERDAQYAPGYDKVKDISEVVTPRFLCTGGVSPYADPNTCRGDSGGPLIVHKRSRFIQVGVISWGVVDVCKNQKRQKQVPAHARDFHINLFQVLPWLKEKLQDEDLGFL

SMILES: COc1cc(C)c2[nH]ccc2c1CN1CC2CCC2C1c1ccc(C(=O)O)cc1 (stereo unspecified) [US20250243186, Example 22]
- IC50: 45 nM
